Patent US7018796B2, “Preincubation assay methods” (Shionogi & Co., Ltd., priority 2000, dated 2006)
“Also recorded” adds a separate entry of the source.

What was measured:
[1] = target: T1, HCV RNA-dependent RNA polymerase (Hepatitis C virus genotype 1a, UniProt P27958); experiment: Prior assay method without pre-incubation, 3H-UTP (Reference 1); format: biochemical; settings: no pre-incubation
T1 construct: HCV RNA-dependent RNA polymerase is encoded in the NS5B (nonstructural protein 5B) region of HCV; made in house; host or cells: insect cells or E. coli
Text: A HCV RNA-dependent RNA polymerase, template RNA, primer RNA, substrate RNA, Mg ion (Mg^2+) and a test substance are mixed at the same time to start an enzyme reaction and measure an enzyme activity. It can be known whether a test substance activates or inhibits an activity of a HCV RNA-dependent RNA polymerase by comparing the above value of an enzyme activity with that measured in the absence of a test substance. IC50 value can be used, which is a concentration of a test substance able to inhibit 50% of an enzyme activity. For example, one of prior methods can be carried out in accordance with the later described Reference 1.
A cDNA encoding HCV RNA-dependent RNA polymerase was made by use of HCV positive human plasma and HCV RNA-dependent RNA polymerase was expressed using the insect cells or the E. coli. HCV RNA-dependent RNA polymerase in the cell extract was purified by use of an anion exchange chromatography, a heparin affinity chromatography, a polyU affinity chromatography, a cation exchange chromatography and gel filtration chromatography. The purification was performed at 4° C. and Tris buffer (pH 7.5) containing ethylenediaminetetraacetic acid (1 mM), dithiothreitol (10 mM) and glycerol (20%) was used. The enzyme purified was stored at 4° C. until use for the assays.
The prior assay method using HCV RNA-dependent RNA polymerase • 1) The buffer I ^1) (10.5 μl) containing Tris-HCl (100 mM, pH 7.5), MgCl2 (25 mM), dithiothreitol (5 mM), KCl (125 mM) and ethylenediaminetetraacetic acid (5 mM) was transferred to a polypropylene tube and then poly(A)^2) solution (100 μg/ml, 10.5 μl), oligo(U)12 ^3) solution (1 μg/ml, 10.5 μl) and water (8 μl) were added into the tube. After mixing, the tube was cooled on ice. • 2) Next, HCV RNA-dependent RNA polymerase (10.5 μl) cooled on ice was added into the tube and mixed. • 3) The mixture cooled (50 μl) was added to a test compound (5.26 μl/well) dissolved with dimethyl sulfoxide or water in a well of a 96-wells microtiter plate. • 4) Additionally, the buffer II (10.6 μl) containing Tris-HCl (100 mM, pH 7.5), MgCl2 (25 mM), dithiothreitol (5 mM), KCl (125 mM), ethylenediaminetetraacetic acid (5 mM) and UTP ^4) (2.1 μM, 1 μCi ^3H-UTP), was mixed with water (39.4 μl). The mixture (50 μl) was added into the well and mix, and then the enzyme reaction was performed at 25° C. for 30 min. • 5) After enzyme reaction for 30 min, the enzyme reaction was stopped by adding disodium ethylenediaminetetraacetic acid (50 mM, 50 μl). • 6) By use of the cell-harvester, all volume of the enzyme reaction sample which was described in 5) was transferred onto a DEAE-filtermat and washed twice for 10 see with sodium phosphate buffer (0.25 M, pH 7.0) and once for 10 sec with de-ionized water. • 7) The DEAE-filtermat was dried at 95° C. for 15 min and transferred into a sample bag with liquid scintillater (10 ml), and then a sample bag was sealed. • 8) The radio activity was measured by a scintillation counter. • 9) The inhibitory rate was calculated from the radioactivity measured (ccpm) as follows. [formula]

[2] = target: T1, HCV RNA-dependent RNA polymerase; experiment: DIG-UTP assay without radioisotope-labeled substrate, without pre-incubation (Example 2); format: biochemical; settings: no pre-incubation, I-1 0.5 μg/ml, 3′-dUTP 0.7 μM, A 100 μg/ml, B 50 μg/ml, C 25 μg/ml
Protocol: After mixing by a plate mixer, the solution was pre-incubated at 25° C. for 1 hr. • 10) On the other hand, the buffer I (10 μl) was transferred into another tube, and UTP (1 μM, 10 μl), DIG-UTP (300 μM, 1 μl), water (24 μl) and a test compound dissolved with dimethyl sulfoxide or water (5 μl) were added to the tube and mixed calmly. Concentrations of the compounds used were as follows.
• 11) The mixed solution (50 μl/well) described in 10) was transferred into each well after the pre-incubation described in 9), mixed by a plate mixer and then incubated at 25° C. for 1 hr. • 12) When the enzyme reaction was in 1 hr, the enzyme reaction was stopped by adding ethylenediaminetetraacetic acid (0.1 M, 50 μl/well). • 13) The plate was washed twice with PBS (200 μl/well) after end of the enzyme reaction. • 14) Next, alkaline phosphatase-labeled anti-DIG antibody (3 U/ml, 100 μl/well) diluted 250-fold with PBS containing skim milk (0.5%) was transferred each well. After mixing by a plate mixer, immuno-reaction was performed at 25° C. for 1 hr. • 15) Each well was washed twice with PBS (200 μl/well) containing skim milk (0.05%) and then washed twice with PBS (200 μl/well). • 16) Substrate solution (150 μl/well) for alkaline phosphatase was prepared by mixing of Tris-HCl (100 mM, pH 9.5), NaCl (100 mM), MgCl2 (5 mM) and p-nitrophenyl phosphate (6 mM) just before use. The substrate solution was transferred into each well of the plate, mixed by a plate mixer and then incubated at 25° C. for 1 hr until the color appears in the solution. • 17) The plate was set on a plate reader and the absorbance was measured at 405 nm. • 18) The inhibitory rate was calculated from the optical density (unit; OD) measured as follows. [formula]
Table 4 summarized the comparison between inhibitory rates in the assay with the pre-incubation and those in the assay without the pre-incubation.

[3] = prior method, I-1 0.5 μg/ml, 3′-dUTP 0.7 μM, A 100 μg/ml, B 50 μg/ml, C 25 μg/ml

T1 sequence (P27958 2421-3011): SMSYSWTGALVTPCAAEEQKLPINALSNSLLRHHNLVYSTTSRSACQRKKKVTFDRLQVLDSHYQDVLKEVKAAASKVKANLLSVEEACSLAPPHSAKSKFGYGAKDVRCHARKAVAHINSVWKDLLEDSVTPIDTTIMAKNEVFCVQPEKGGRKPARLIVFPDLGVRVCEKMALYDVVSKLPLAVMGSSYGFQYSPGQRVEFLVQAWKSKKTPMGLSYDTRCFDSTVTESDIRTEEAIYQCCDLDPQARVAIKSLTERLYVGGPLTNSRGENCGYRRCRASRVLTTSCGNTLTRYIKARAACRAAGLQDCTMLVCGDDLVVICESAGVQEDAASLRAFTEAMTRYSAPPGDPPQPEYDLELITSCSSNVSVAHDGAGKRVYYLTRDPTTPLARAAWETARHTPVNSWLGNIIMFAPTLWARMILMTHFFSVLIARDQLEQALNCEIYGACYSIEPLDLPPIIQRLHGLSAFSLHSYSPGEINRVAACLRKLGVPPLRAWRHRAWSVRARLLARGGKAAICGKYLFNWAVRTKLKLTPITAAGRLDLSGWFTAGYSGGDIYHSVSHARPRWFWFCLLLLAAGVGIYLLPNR

Structure (SMILES)	Inhibitory rate (Table 3) [1, 3] [%]	Inhibitory rate, treatment of pre-incubation − [2] [%]	Judgement in the prior method (positive / negative) [1]	inhibition at 0.5 µg/mL ([1]; prior method, I-1 0.5 μg/ml, 3′-dUTP 0.7 μM, A 100 μg/ml, B 50 μg/ml, C 25 μg/ml, read-out: Inhibitory rate (Table 3)) [%]	inhibition at 0.5 µg/mL ([2]; read-out: Inhibitory rate, treatment of pre-incubation −) [%]
O=c1ccn([C@@H]2O[C@H](COP(=O)(O)OP(=O)(O)OP(=O)(O)O)C[C@H]2O)c(=O)[nH]1 [3′-dUTP, 3′-deoxyuridine triphosphate]	68	44			
Cc1oc(-c2ccccc2)nc1CCOc1ccc(C=C2C(=O)NC(=O)NC2=O)cc1 [Compound A]	50	87	positive data		
O=C1NC(=O)C(=Cc2ccc(OCCc3cccc4ccccc34)cc2)C(=O)N1 [Compound B]	63	28	positive data		
CCCCC1=N/C(=C\c2ccccc2OCC(=O)O)C(=O)N1Cc1ccc(-c2ccccc2-c2nnn[nH]2)cc1 [Compound C]	67	87	positive data; also recorded: positive result		
O=C(O)/C(O)=C/C(=O)c1cccc(O)c1 [Compound I-1]				62	59
